The values that follow come from patent publication US10077236B2, “Azacyclic constrained analogs of FTY720” (The Regents of the University of California, priority 2013, dated 2018).

The structures appear in SMILES notation. Entries after “also recorded” stand apart in the source; their conditions may differ.

The subject of data set [1] is PC3 prostate cancer cell line. The data set can be described thus: Cell viability assay, PC3. The format is cell-based, human. The following applies: 72 h, vital dye exclusion and flow cytometry; read-out: Mean IC50 (+/- SEM) in cell viability assay, PC3 prostate. How it is done:
(§1) Flow cytometry: Much of the biological activity presented is shown through flow cytometry data. […] Here, IC50 flow cytometry assays were used. […] To measure nutrient receptor expression following exposure to FTY720 and azacyclic constrained analogs of FTY720, surface 4F2hc expression was measured after 3 hours of drug treatment by staining 150,000 cells with phycoerythrin-conjugated mouse anti-human CD98 (by BD Biosciences™). Analysis was restricted to viable cells. All samples for the disclosed sets of data were analyzed on a BD LSR II flow cytometer and data analyzed with FlowJo™ software (by Treestar™). IC50's were calculated and statistical tests were performed using GraphPad Prism™.

The next data set has as its system BV173 Ph+ ALL cell line. The experiment in a line: Cell viability assay, BV173. The format is cell-based, human. The following applies: 72 h, vital dye exclusion and flow cytometry; read-out: Mean IC50 (+/- SEM) in cell viability assay, BV173 Ph+ ALL. An excerpt:
(§2) Leukemia cell assays: Effects of chemical changes on ability to kill cells as observed in cell viability assays using the BCR-ABL positive human acute lymphoblastic leukemia (ALL) cell line, Sup-B15 are described. Assays using the Sup-B15 cell line were designed to determine efficacy of azacyclic constrained small molecule analogs of FTY720 in killing leukemia cells. Analogs were generated using the synthesis methods mentioned above. Sup-B15 cells were maintained at 2-3 million/mL in RPMI 1640 (by Mediatech™) supplemented with 10% fetal calf serum (by Sigma-Aldrich™), 10 mM Hepes (by Mediatech™), 55 μM β-mercaptoethanol (by Sigma-Aldrich™), 2 mM L-glutamine (by Mediatech™), and antibiotics. BV173, Nalm-6, and Blin-1 were maintained at 1-2 million/mL and CCRF-CEM at less than 500,000/mL in the same medium. BMp190 cells were created by transducing murine bone marrow cells with pMIC-p190 which expresses the p190 isoform of BCR-Abl and human CD4 from an IRES; these cells were kept at 1-2 million/mL in RPMI supplemented as above.
(§3) Flow cytometry: Much of the biological activity presented is shown through flow cytometry data. […] Here, IC50 flow cytometry assays were used. In them, viability was determined at 72 hours by vital dye exclusion [propium iodide or DAPI (4′,6-diamindino-2-phenylindole)]. To measure nutrient receptor expression following exposure to FTY720 and azacyclic constrained analogs of FTY720, surface 4F2hc expression was measured after 3 hours of drug treatment by staining 150,000 cells with phycoerythrin-conjugated mouse anti-human CD98 (by BD Biosciences™). Analysis was restricted to viable cells.
(§4) All samples for the disclosed sets of data were analyzed on a BD LSR II flow cytometer and data analyzed with FlowJo™ software (by Treestar™). IC50's were calculated and statistical tests were performed using GraphPad Prism™.

Data set [2] relates to BCR-Abl+ leukemias compared to other cell types. The experiment in a line: Ratio of IC50 of compound 6 (177) and its enantiomer compound 5 (39) across cell types. In kind it is cell-based. The text has this:
Another difference between compound 6 and FTY720 or the enantiomer of compound 6, is that compound 6 has a specific and very high activity to BCR-Abl+ leukemias compared to other cell types. This trend is shown in FIG. 10d by calculating the ratio of 1050 for compound 6 (also called 177) and its enantiomer compound 5 (also called 39). If the drugs are similarly effective a ratio near 1 would be expected, and if compound 6 works better (has a lower 1050), a ratio greater than one as with SupB15s would be expected. […] Finally, it is seen that the Ph+ALL primary patient sample has a ratio greater than 1.

The subject of data set [3] is sphingosine-1-phosphate receptors. The data set can be described thus: S1P receptor activation in CHO cells expressing the receptors. The format is cell-based. The note with it: added to CHO cells expressing the receptors. On the procedure:
When the pure phosphates are added to these CHO cells, multiple S1P receptors are activated when the phosphates are present at 1-10 uM. There is no enantiomer-selectivity in the activation of S1P receptors.

Data set [4] relates to SupB15 model, leukemic burden in the bone marrow. The data set can be described thus: In vivo SupB15 leukemia model. The note with it: 21 days of treatment, 10 mg/kg i.p. An excerpt: Since compound 6 worked so well in the leukemia cell line, an examination of its effectiveness in vivo in a SupB15 model was undertaken.
Data set [5] deals with patient-derived BCR-Abl+ acute lymphoblastic leukemia cells. The experiment in a line: Viability of patient-derived BCR-Abl+ acute lymphoblastic leukemia cells. In kind it is cell-based, human. The following applies: 96 h, flow cytometry (vital dye exclusion). On the procedure:
Finally, in FIG. 10g dose response curves are provided for studies conducted with patient-derived BCR-Abl+ acute lymphoblastic leukemia cells. Viability was measured at 96 h by flow cytometry (vital dye exclusion).

Data set [6] concerns BMp190 cells (murine bone marrow transduced with BCR-Abl p190). The data set can be described thus: Cell viability assay, BCR-Abl p190-expressing murine bone marrow (BM-p190). In kind it is cell-based.
Description: as §2, §3, §4

For data set [7], the system named is Sup-B15 BCR-ABL positive human acute lymphoblastic leukemia (ALL) cell line. The data set can be described thus: Cell viability assay, Sup-B15 leukemia cells (flow cytometry, vital dye exclusion). The format is cell-based. The following applies: for cell death in combination with dasatinib: 72 h.
Description: as §2, §3, §4
A general note: In flow cytometry, cells or beads pass a laser one at a time.

The next data set has as its system Nalm-6 Ph- ALL cell line. The data set can be described thus: Cell viability assay, Nalm-6. The format is cell-based, human. The note with it: 72 h, vital dye exclusion and flow cytometry; read-out: Mean IC50 (+/- SEM) in cell viability assay, Nalm-6 Ph- ALL.
Description: as §2, §3, §4

Data set [8] in a line: Distribution of compound 6 and its phosphorylated form in plasma, bone marrow and spleen of mice. The format is in vivo. The note with it: normalization to total protein; tissues versus blood. On the procedure: A study was then conducted to examine what happens to compound 6 when administered to animals. Mice were treated with 10 mg/kg doses of compound 6 (i.p.) and then the mice were sacrificed at various time points, then plasma, bone marrow, and spleen tissue were extracted to build curves. […] Indeed, the ratio of phosphorylated to unphosphorylated compound 6 in the spleen and bone marrow is close to 1:1 after i.p. administration.

A further data set relates to SphK2 null MEFs. The data set can be described thus: Sensitivity of SphK2 null MEFs. In kind it is cell-based. On the procedure: The importance of phosphorylation in the activity of compound 6 was then examined. In this study MEF knockout lines that show the same differential sensitivity to compound 6 relative to its enantiomers as leukemia cells were used (FIG. 10h). […] A phosphate and a non-phosphorylatable analog of compound 6 were then tested.

Data set [9] concerns DU145 prostate cancer cell line. The experiment in a line: Cell viability assay, DU145. The following applies: 72 h, vital dye exclusion and flow cytometry; read-out: Mean IC50 (+/- SEM) in cell viability assay, DU145 prostate. In kind it is cell-based, human. On the procedure:
as §1

For the molecule `CCCCCCCCc1ccc(CO[C@@H]2CN[C@@H](CO)C2)cc1.Cl` [Compound 6], the IC50 was determined as 13.5 ± 2.6 µM in [1]; 3.8 ± 0.4 µM in the data set with BV173 Ph+ ALL cell line; 0.5 ± 0.1 µM in [6] (72 h, vital dye exclusion and flow cytometry, read-out: Mean IC50 (+/- SEM) in cell viability assay, BM-p190); 2 µM in [7] (BCR-Abl+ SupB15 leukemia cell line, read-out: IC50); 13.5 ± 2.4 µM in the data set with Nalm-6 Ph- ALL cell line; 15.1 ± 1 µM in data set [9]. Moreover, the “ratio of IC50, compound 6 versus its enantiomer compound 5” value in data set [2] (2 Ph+ ALL lines and BM transduced with BCR-ABL p190 fusion) is “greater than 1”; in [2] (3 Ph- ALL lines) it was ~1; in [2] (Ph+ALL primary patient sample) it was “greater than 1”. For the same molecule, the “sensitivity of non-sensitive line after p190 transduction” value in data set [2] (CCRF transduced with p190) is recorded as “becomes sensitized to compound 6”. Moreover, the “activation of sphingosine-1-phosphate receptors” value in data set [3] is recorded as “do not activate sphingosine-1-phosphate receptors”. The “leukemic burden in the bone marrow” value in [4] is reported as “dramatic reduction in the leukemic burden in the bone marrow”. Also, in data set [5], the “potency in dose response, viability” value is “more potent than FTY720 and its enantiomer, compound 39”. Besides, the “more active than compound 5” value in data set [6] (murine bone marrow transformed by BCR-ABL p190) is 10 fold. In [7] (1 μM (=0.5×IC50), alone), the “cell killing at 72 h” value was “does not kill”. The figures for the “cell death in combination with dasatinib” value in data set [7] (1 μM compound 6 + dasatinib 200 nM) and in data set [7] (2 μM compound 6 + dasatinib) were “increases cell death” and “increases cell death beyond that caused by compound 6 alone”, respectively. In [7] (2 μM (1×IC50), alone), the “cell viability at 72 h” value is listed as “significantly reduces cell viability”. Further, the “ability to kill leukemia cells, potency compared in words” value in data set [7] (Sup-B15 cell viability assays) was “activity much greater than compounds 5, 7, and 8; also recorded: enhanced anticancer activity relative to its diasteromeric congeners and to FTY720”. In [7] (both drugs at their maximally active dose), the “killing compared with dasatinib” value is reported as “kills better than dasatinib”. In addition, in [8], the tissue accumulation entry was “accumulates in tissues to higher levels than are present in blood”. In the data set with SphK2 null MEFs, the “gain of functional activity” value was “no longer shows gain of functional activity”.
